For 6 compounds, Kd and ΔTm results are on record in publication doi:10.1101/538157v1 (biorxiv, 2019).

Test [1] addresses T1, CAMKK2-KD (kinase domain of CAMKK2) (Homo sapiens, UniProt Q96RR4). Put plainly: isothermal titration calorimetry. Format: binding. On the technique in general: Isothermal titration calorimetry measures the heat released or taken up as one component is titrated into another.
The target in test [2] is T1, CAMKK2-KD (kinase domain of CAMKK2). Put plainly: biochemical. The note with it: read-out: ΔTm (°C) 96-well.

Broadly, the Kd is the equilibrium constant for the complex coming apart. Lower therefore signals tighter binding. For orientation: ΔTm means the shift of the melting midpoint relative to a reference.

T1 sequence (Q96RR4 161-449): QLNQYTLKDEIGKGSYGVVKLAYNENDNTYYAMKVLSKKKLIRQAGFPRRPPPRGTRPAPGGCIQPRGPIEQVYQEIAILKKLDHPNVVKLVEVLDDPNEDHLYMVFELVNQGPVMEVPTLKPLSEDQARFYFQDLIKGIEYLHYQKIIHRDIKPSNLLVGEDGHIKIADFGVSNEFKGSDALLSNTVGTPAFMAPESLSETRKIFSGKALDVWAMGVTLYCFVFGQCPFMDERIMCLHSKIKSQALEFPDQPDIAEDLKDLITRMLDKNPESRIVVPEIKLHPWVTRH

Regarding `COc1cc(N2CCC(N(C)C)CC2)ccc1Nc1ncc(Cl)c(Nc2ccccc2P(C)(C)=O)n1` [ALK-IN-1], binding in test [1] was characterised by a dissociation constant (Kd) of 5.8 nM. This lies in the single-digit nanomolar range.

With `COc1cc2c(Nc3cc(Cl)c(OC)c(Cl)c3)c(C#N)cnc2cc1OCCCN1CCN(C)CC1` [Bosutinib isomer], the ΔTm at 12 µM in test [2] was 4.1 °C. In the case of `Cn1cc(/C=C2\C(=O)Nc3ccc(S(N)(=O)=O)cc32)c2ccccc21` [Syk Inhibitor], in test [2], the ΔTm at 12 µM is 9.4 °C. In the case of `CC(C)(C)c1nc2c3cc[nH]c(=O)c3c3cc(F)ccc3c2[nH]1` [JAK Inhibitor I], the ΔTm at 12 µM in test [2] amounted to 4.7 °C. As for `c1ccc(-c2cnc(Nc3ccc(OCCN4CCCC4)cc3)s2)cc1` [Flt3 Inhibitor III], the ΔTm at 12 µM in test [2] is 7.5 °C.

In test [1], `CC[C@@H]1C(=O)N(C)c2cnc(Nc3ccc(C(=O)N[C@H]4CC[C@H](N5CCN(CC6CC6)CC5)CC4)cc3OC)nc2N1C(C)C` [BI 6727] returned a Kd of 8.1 nM.
